One data set deals with 48 hpf zebrafish embryos. Particulars: for Cardiotoxic effect in zebrafish: blind screened between 1 and 200 µM, predominant effect.
Another data set has as its system humans. Particulars: known effects in humans; cited from earlier work.
Data set [1] relates to zebrafish embryos. The experiment in a line: Automated angiogenesis assay (ISV formation), Flk1:copGFP embryos treated at 22-26 hpf, read at 48 hpf. Type of data set: in vivo. Particulars: for Angiog. inhibition: presence or absence of an anti-angiogenic effect, 0.01-100 µM; for Efective concentration (minimum concentration that showed an effect): given when IC50 could not be calculated; for Anti-angiogenic phenotype (ISVs / DLAV): treated at 24 hpf, checked at 48 hpf; for IC50: manually quantified.
Text: In the angiogenesis assay, the fluorescent images taken were processed using AxioVision 4.6.3 and a macro was developed to quantify an indirect measure of the area of the ISVs. […] However, we usually include a manual counting to offer a more detailed measurement of effect.
In the automatic analysis of angiogenesis, it is first necessary to perform a sequence of automated filtering functions on the image to extract information, define the region of interest (ROI), that in this case is the part of the tail containing the ISVs, and allow the measurement of the embryo length. Recovering a previous image, new filtering functions are applied to the ROI. A gradient image containing the ISVs, the DLAV (Dorsal Longitudinal Anastomotic Vessel), the PCV and the DA is created. Next, fluorescent areas that should not be quantified are discarded. Finally, only the areas comprised between the ISVs, the DLAV and the PCV or the DA are measured (Figure 4). In that way, when the vessels are incomplete or the DLAV is not present, an enclosed area is not present and therefore not measured.
The means obtained from the treated embryos were compared with the control mean. When statistically significant differences were detected a deeper analysis was done manually. In this case the parameters quantified were:
• The total number of ISVs present in the trunk of the embryos (from where the largest bulge of the yolk ends to the end of the tail). • Number of complete ISVs (reached the dorsal part of the embryo and formed the DLAV).
A curve of six concentrations (0.01, 0.1, 1, 10, 30 and 100 µM) was performed for all of them. […] IC50 was calculated when a clear dose-dependent anti-angiogenesis effect was detected. Otherwise, the minimum dose at which the inhibition of angiogenesis was observed is shown (Table 4).
At this time, chorions were removed with protease from Streptomyces griseus (Sigma-Aldrich) (1.5 mg/ml for 6 minutes) and the embryos were sorted and dispensed 1 per well in a 96 well assay plate. Each experimental condition was tested in a row with ten embryos. Embryos were dispensed in an average final volume of 90 µl of E3 media. 90 µl of the test items (DMSO and positive control KRN633 included) previously diluted 100 times were dispensed into each well of the assay plate containing the embryos to get the final volume of 180 µl and the desired final concentration.
The microscope scanned the wells by columns and a bright field image and a fluorescent image (2.5×magnification) were acquired per well. Then, the image analysis was performed and the result file generated.
Statistical analysis and graphical representation of the data were performed using SSPS (Statistical Package for the Social Sciences) software and Prism (Graph Pad Software) for IC50 calculations (non linear regression, sigmoidal dose-response with variable slope). […] In the angiogenesis assay, for comparisons between two groups, two-tailed t-test was used assuming unequal variances. For comparisons between more than two groups one-way analysis of variance followed by Dunnett’s post-test was applied to compare each data point with vehicle control.

For data set [2], the system named is zebrafish embryos. The experiment in a line: Embryo analysis at 72 hpf (blood circulation and ISVs development). Type of data set: in vivo. Here is the method: Embryos from the Flk1:copGFP line were treated with the indicated compounds at 22–23 hpf in 500 µl of E3 in p24 well plates (5 embryos per well). After 48 hours of treatment embryos were anesthetized with 10 µl Tricaine (final concentration 0.02%) and analyzed for the presence of blood circulation and ISVs development using a Leica M205 FA stereoscope equipped with a Hamamatsu C10600 camera.

[3] abbreviates: read-out: IC50 C.V. (complete number of vessels).
[4] abbreviates: read-out: IC50 T.V. (total number of vessels).
Setting [5] is: Danio rerio, read-out: IC50 C.V. (complete number of vessels).
The mark [6] stands for this setting: Danio rerio, read-out: IC50 T.V. (total number of vessels).

“Also recorded” adds a separate entry of the source. Where a name gives a salt, the structure may show the parent alone. Read-outs that look alike come from different tables or passages of the source.

Broadly, the IC50 is the concentration that gives 50% inhibition.

Text for 48 hpf zebrafish embryos: The image analysis program for the Cardiotoxicity assay was based on the processing of the videos to obtain a periodic signal of the cardiac motion automatically and independent to the embryo position.
The detection of the heart beat frequency was based on the frequency spectrum analysis of the Euclidean Distance (ED) signal (built as the ED between the frames of the video referred to a reference frame calculated with the mean values of intensity for homogeneous zones). Obtaining the periodogram using the Discrete Fourier Transform (DFT), and modifying it to avoid undesired effects, the heart beat frequency was given by its first significant frequency (Figure 3 A).
For embryos with arrhythmia (A), the sinusoidal course of the ED signal was disrupted due to the irregular beating of the heart, i.e. the different beating frequency of each chamber. The classification of the arrhythmia cases was therefore based on the number of significant frequencies detected in the DFT of the ED signal (Figure 3 B).
Embryos at 48 hpf were automatically dispensed in a 96 well plate discarding exterior columns and rows and volume was leveled to 50µl with E3. Compounds were prepared 200 times concentrated in DMSO. A 1∶100 dilution was automatically made from the stock and 50 µl were added to each embryo to reach the final concentration. […] Embryos that moved during video recording were discarded. […] One video per embryo from a minimum of 10 embryos in each treated group were necessary for statistical analysis.

For the compound `C[C@H]1O[C@@H](O[C@H]2[C@@H](O)C[C@H](O[C@H]3[C@@H](O)C[C@H](O[C@H]4CC[C@@]5(C)[C@H](CC[C@@H]6[C@@H]5CC[C@]5(C)[C@@H](C7=CC(=O)OC7)CC[C@]65O)C4)O[C@@H]3C)O[C@@H]2C)C[C@H](O)[C@@H]1O` [Digitoxin], in the data set with 48 hpf zebrafish embryos (48 hpf zebrafish embryos, 5 µM), the Predominant observed effect entry was “N”. Moreover, the “Cardiotoxic effect in zebrafish” value with 48 hpf zebrafish embryos is recorded as “Cardiac arrest”.

Regarding `O=c1[nH]c2ccccc2n1C1CCN(CCCC(c2ccc(F)cc2)c2ccc(F)cc2)CC1` [Pimozide], in the data set with humans, the “Cardiac effect in humans” value is “QT-prolong”. On to `CCCCc1oc2ccccc2c1C(=O)c1cc(I)c(OCCN(CC)CC)c(I)c1` [Amiodarone], for which the “Cardiac effect in humans” value in the data set on humans is “QT-prolong”. Consider `CC(N)=O` [Acetamide], for which, in the data set on zebrafish embryos [1], the Angiog. inhibition entry was “No”. Take `O=C(O)P(=O)(O)O` [Foscarnet]: the “Cardiotoxic effect in zebrafish” value in the data set with 48 hpf zebrafish embryos is listed as “Bradycardia”. In addition, the “Cardiac effect in humans” value in the data set with humans is reported as “Bradycardia”. Take `CS(=O)(=O)Nc1ccc([N+](=O)[O-])cc1OC1CCCCC1` [NS-398]: in the data set on zebrafish embryos [1], the “Efective concentration (minimum concentration that showed an effect)” value (“Efective concentration” for short) was 30 µM, the Angiog. inhibition entry is given as “Yes” and the “Anti-angiogenic phenotype (ISVs / DLAV)” value is on record as “moderate effect that did not increase with higher doses”. Moreover, the Lethality entry with zebrafish embryos [2] (treatment to 72 hpf at the 48 hpf doses which inhibited angiogenesis) is on record as “lethal”. On to `COc1cc(OC)cc(-c2cc3cnc(N)nc3nc2NC(=O)NC(C)(C)C)c1` [PD166866], for which the IC50 in the data set on zebrafish embryos [1] (setting [3]) is 16 µM. In addition, the IC50 in the data set on zebrafish embryos [1] (setting [4]) stood at 43.9 µM. Besides, in the data set on zebrafish embryos [1], the Angiog. inhibition result is “Yes” and the “Anti-angiogenic phenotype (ISVs / DLAV)” value was “the formation of ISVs was perturbed with defective or total absence of sprouting; also recorded: strong angiogenesis inhibition”. For the compound `COc1cc(Nc2c(C#N)cnc3cc(OCCCN4CCN(C)CC4)c(OC)cc23)c(Cl)cc1Cl` [Bosutinib], in the data set on zebrafish embryos [1], the “Efective concentration” value is listed as 50 µM, the Angiog. inhibition entry is on record as “Yes” and the “Anti-angiogenic phenotype (ISVs / DLAV)” value is “moderate effect that did not increase with higher doses”. For the same compound, in the data set with zebrafish embryos [2] (72 hpf), the Blood circulation result is given as “impaired blood circulation” and the ISVs appearance entry was “thinner ISVs that were disrupted in some cases”.

As for `COc1cccc2c1C(=O)c1c(O)c3c(c(O)c1C2=O)C[C@@](O)(C(=O)CO)C[C@@H]3O[C@H]1C[C@H](N)[C@H](O)[C@H](C)O1` [Doxorrubicin], in the data set on humans, the “Cardiac effect in humans” value is recorded as “No effect”.

Regarding `CNCCC(Oc1ccc(C(F)(F)F)cc1)c1ccccc1` (stereo not drawn) [Fluoxetine], the “Cardiac effect in humans” value in the data set with humans is reported as “Arrhythmia”. With `COc1cc2c(cc1O)CC[C@@H]1[C@@H]2CC[C@]2(C)[C@@H](O)CC[C@@H]12` [2-Methoxyestradiol], the IC50 with zebrafish embryos [1] (setting [5]) was 10.2 µM; with zebrafish embryos [1] (setting [6]), 30.6 µM. In addition, the Angiog. inhibition entry in the data set on zebrafish embryos [1] was “Yes”. Besides, in the data set on zebrafish embryos [1], the “Anti-angiogenic phenotype (ISVs / DLAV)” value is listed as “the formation of ISVs was perturbed with defective or total absence of sprouting”. Consider `CCCCc1oc2ccccc2c1C(=O)c1cc(I)c(OCCN(CC)CC)c(I)c1` [Amiodarone hydrochloride], for which the Angiog. inhibition result in the data set with zebrafish embryos [1] was “No”. Turning to `CN1CCC[C@H]1c1cccnc1` [Nicotine], the “Cardiotoxic effect in zebrafish” value with 48 hpf zebrafish embryos is listed as “Bradycardia”. Besides, the “Cardiac effect in humans” value with humans is “Bradycardia”. Regarding `CC(CC(c1ccccc1)c1ccccc1)NC(C)(C)C` (stereo not drawn) [Terodiline], the “Cardiotoxic effect in zebrafish” value with 48 hpf zebrafish embryos was “Arrhythmia 2∶1”. For the same compound, in the data set with humans, the “Cardiac effect in humans” value is listed as “QT-prolong”. `CCOC(=O)C1=C(C)NC(C)=C(C(=O)OC)C1c1cccc([N+](=O)[O-])c1` (stereo not drawn) [Nitrendipine]: in the data set with humans, the “Cardiac effect in humans” value is given as “Cardiac arrest”. For `COc1cc2nccc(Oc3ccc(NC(=S)NC(=O)c4ccccc4C)cc3)c2cc1OC` [PDGFR tyr kin inhibitor V], the IC50 in the data set on zebrafish embryos [1] (setting [3]) was found to be 0.14 µM; in the data set on zebrafish embryos [1] (setting [4]), 0.19 µM. For the same compound, the Angiog. inhibition result in the data set on zebrafish embryos [1] is listed as “Yes”. Besides, the results for the “Anti-angiogenic phenotype (ISVs / DLAV)” value in the data set with zebrafish embryos [1] (listed as PDGFR tyrosine kinase inhibitor) and with zebrafish embryos [1] (listed as PDGFR tyrosine kinase inhibitor V) were “the formation of ISVs was perturbed with defective or total absence of sprouting” and “strong angiogenesis inhibition”, respectively.

Regarding `CCS(=O)(=O)N(C)[C@H]1c2cc(C#N)ccc2OC(C)(C)[C@@H]1O` (racemic) [Chromanol 293b], the “Cardiotoxic effect in zebrafish” value with 48 hpf zebrafish embryos is recorded as “No effect”. In addition, the “Cardiac effect in humans” value with humans is “QT-prolong”. As for `COc1ccc(CCN2CCC(Nc3nc4ccccc4n3Cc3ccc(F)cc3)CC2)cc1` [Astemizole], the “Cardiac effect in humans” value in the data set on humans is “QT-prolong”. For the compound `COc1cc2c(Nc3ccc(Br)cc3F)ncnc2cc1OCC1CCN(C)CC1` [ZD6474 (Vandetanib), Vandetanib], in the data set on zebrafish embryos [1], the “Efective concentration” value was 100 µM, the Angiog. inhibition entry is “Yes” and the “Anti-angiogenic phenotype (ISVs / DLAV)” value is reported as “the formation of ISVs was perturbed with defective or total absence of sprouting”. As to `COC(=O)c1ccc(O)c(NC(=O)COc2ccc(C34CC5CC(CC(C5)C3)C4)cc2)c1` [HIF-1 Inhibitor], the Angiog. inhibition entry with zebrafish embryos [1] was “No”; with zebrafish embryos [1] (listed as Hif-1 inhibitor) it was “not detected”. Consider `CC(=O)N[C@@H](CS)C(=O)O` [N-Acetyl-L-cysteine], for which the Angiog. inhibition entry in the data set with zebrafish embryos [1] was “No”.

`CC(C)C[C@H](NC(=O)[C@H]1O[C@@H]1C(=O)O)C(=O)NCCCCN=C(N)N` [E64]: the Angiog. inhibition entry in the data set with zebrafish embryos [1] is “No”. On to `Nc1nc(OCc2ccccc2)c2nc[nH]c2n1` [O6-benzylguanine], for which the Angiog. inhibition entry in the data set on zebrafish embryos [1] was “No”. Take `Cc1cn[nH]c1.Cl` [4-Methylpyrazole hydrochloride]: the Angiog. inhibition entry in the data set with zebrafish embryos [1] is listed as “No”. For `N#Cc1cc2c(OCC(O)CN3CCN(C(c4ccccc4)c4ccccc4)CC3)cccc2[nH]1` (stereo not drawn) [SDZ-201106], the “Cardiotoxic effect in zebrafish” value in the data set with 48 hpf zebrafish embryos was 2∶1 arrhythmia and type 2∶1 arrhythmias and Arrhythmia 2∶1. The “Cardiac effect in humans” value in the data set on humans is recorded as “QT-prolong”. For the compound `COc1ccc2cc(-c3nc(-c4ccc([S+](C)[O-])cc4)[nH]c3-c3ccncc3)ccc2c1` (stereo not drawn) [Tie2 Kinase inhibitor], the figures for the Angiog. inhibition result in the data set with zebrafish embryos [1] and in the data set on zebrafish embryos [1] (listed as Tie-2 kinase inhibitor) were “No” and “not detected”, respectively. On to `COc1cc(N)c(Cl)cc1C(=O)NC1CCN(CCCOc2ccc(F)cc2)CC1OC` (stereo not drawn) [Cisapride], for which the “Cardiac effect in humans” value in the data set with humans is on record as “QT-prolong”. On to `C[C@]12CC[C@H]3[C@@H](CCC4=CC(=O)CC[C@@]43C)[C@@H]1CC[C@@H]2O` [Testosterone], for which, in the data set with 48 hpf zebrafish embryos, the “Cardiotoxic effect in zebrafish” value was “Bradycardia”. In addition, the “Cardiac effect in humans” value in the data set with humans was “Bradycardia”. With `O=C1Nc2ccccc2/C1=C1/Nc2ccccc2/C1=N\O` [Indirubin-3̀-oxime], the IC50 with zebrafish embryos [1] (setting [3]) is 4.2 µM. Besides, the IC50 in the data set on zebrafish embryos [1] (setting [4]) amounted to 18.3 µM. Also, in the data set on zebrafish embryos [1], the Angiog. inhibition entry was “Yes” and the “Anti-angiogenic phenotype (ISVs / DLAV)” value is “the formation of ISVs was perturbed with defective or total absence of sprouting”. For the compound `O=C1Cc2cc(CCN3CCN(c4nsc5ccccc45)CC3)c(Cl)cc2N1` [Ziprasidone], the “Cardiac effect in humans” value in the data set on humans is reported as “QT-prolong”. With `CC(C)(C)NC[C@H](O)COc1nsnc1N1CCOCC1` [Timolol], the “Cardiac effect in humans” value in the data set on humans was “Bradycardia”.

With `N.N.[Cl][Pt][Cl]` [cis-Diammineplatinum(II) dichloride], in the data set on zebrafish embryos [1], the Angiog. inhibition entry is recorded as “No”. Regarding `COc1cc2ncnc(Nc3cccc(Cl)c3)c2cc1OC` [AG1478], in the data set with zebrafish embryos [1] (setting [3]), the IC50 was found to be 13 µM. In addition, the IC50 with zebrafish embryos [1] (setting [4]) worked out at 22.8 µM. Besides, in the data set with zebrafish embryos [1], the Angiog. inhibition entry was “Yes” and the “Anti-angiogenic phenotype (ISVs / DLAV)” value was “the formation of ISVs was perturbed with defective or total absence of sprouting; also recorded: lower number of incomplete ISVs”. `CS(=O)(=O)CCNCc1ccc(-c2ccc3ncnc(Nc4ccc(OCc5cccc(F)c5)c(Cl)c4)c3c2)o1` [Lapatinib]: the “Cardiac effect in humans” value in the data set on humans was “No effect”. As to `Cc1nc2n(c(=O)c1CCN1CCC(c3noc4cc(F)ccc34)CC1)CCCC2` [Risperidone], the “Cardiac effect in humans” value with humans is on record as “QT-prolong”.

For the compound `CC(C)(C)c1ccc(C(O)CCCN2CCC(C(O)(c3ccccc3)c3ccccc3)CC2)cc1` (stereo not drawn) [Terfenadine], in the data set on 48 hpf zebrafish embryos (tested at 0.1, 1, 5, 10, 20 and 50 µM), the “Concentration at which detected as potential QT-prolongation inducer” value was found to be 5 µM. `CCCNC(=O)Nc1ccc(Oc2ncnc3cc(OC)c(OC)cc23)cc1Cl` [KRN633]: the IC50 in the data set with zebrafish embryos [1] (setting [5]) turned out to be 0.026 µM. For the same compound, the IC50 with zebrafish embryos [1] (setting [6]) was found to be 0.035 µM. Moreover, in the data set on zebrafish embryos [1], the Angiog. inhibition result was “Yes” and the “Anti-angiogenic phenotype (ISVs / DLAV)” value is “the formation of ISVs was perturbed with defective or total absence of sprouting”. Regarding `O=C(c1ccc(F)cc1)C1CCN(CCn2c(=O)[nH]c3ccccc3c2=O)CC1` [Ketanserin], in the data set with humans, the “Cardiac effect in humans” value is on record as “Bradycardia”. As for `O=C1NCCN1CCN1CCC(c2cn(-c3ccc(F)cc3)c3ccc(Cl)cc23)CC1` [Sertindol], the “Cardiac effect in humans” value in the data set on humans is given as “QT-prolong”.

Regarding `N#C/C(=C\c1ccc(O)c(O)c1)C(=O)NCc1ccccc1` [Tyrphostin AG490], the Angiog. inhibition entry in the data set on zebrafish embryos [1] is “No”. Consider `CCN(CC)CC(=O)Nc1c(C)cccc1C` [Lidocaine], for which the “Cardiac effect in humans” value in the data set with humans was “Bradycardia”.

On to `CC[C@@H]1C(=O)OC[C@@H]1Cc1cncn1C` [Pilocarpine], for which the “Cardiac effect in humans” value in the data set on humans is “No effect”. `CO[C@@H]1[C@H](OC(=O)/C=C/C=C/C=C/C=C/C(=O)O)CC[C@]2(CO2)[C@H]1[C@@]1(C)O[C@@H]1CC=C(C)C` [Fumagillin]: the Angiog. inhibition entry with zebrafish embryos [1] is “not detected and No”. `CC(C)C[C@H](NC(=O)[C@@H](O)[C@H](N)Cc1ccccc1)C(=O)O` [Bestatin]: the Angiog. inhibition entry with zebrafish embryos [1] is “No”.

Source of the values: PMC3352927, “Development and Validation of an Automated High-Throughput System for Zebrafish In Vivo Screenings” (PLoS ONE, 2012).
